US20100209345A1, “Fluorinated Ligands for Targeting Peripheral Benzodiazepine Receptors” (Australian Nuclear Science & Technology Organisation, priority 2006, published 2010)
Read-outs that look alike come from different tables or passages of the source. One block for each molecule: values may come before it.

Tests used:
[1] = molecular target: central benzodiazepine receptors; experiment: In vitro binding, [3H]-Flumazenil, brain cortex membrane preparation; conditions: for IC50: [3H]-Flumazenil (2 nM), 25° C., 45 min, read-out: CBR IC50
Description: (§1) Non-specific binding was determined with Flumazenil (20 μM). In both cases, incubations were terminated by rapid filtration through Whatman GF/B glass fibre. Filters were immediately washed 3 times with 5 mL ice-cold 50 mM Tris/HCl at pH 7.4. Filters were counted in a β-scintillation counter (Packard) to measure the amount of bound radioactivity. The IC50 of the compounds for the peripheral benzodiazepine binding site and the central benzodiazepine receptor were calculated using Kell 6 software.

[2] = molecular target: T1, peripheral benzodiazepine binding site (Rattus norvegicus, UniProt P16257); experiment: In vitro binding, [3H]-PK11195, kidney membrane preparation; conditions: [3H]-PK11195 (2 nM), 4° C., 1 h
T1 construct: diluted kidney membrane preparation (200 μg); from tissue; host or cells: kidney membrane preparation
Description: Non-specific binding was determined with PK11195 (10 μM).
as §1

[3] = LogP HPLC
[4] = Biodistribution of 18F-labelled tracers in rats; format: in vivo; conditions: SD rats; for Biodistribution: Bone / Biodistribution: Kidney / Biodistribution: Olfactory bulbs / Biodistribution: Adrenals: decay correction not stated
Outline: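 Sprague-Dawley rats received 18F tracer, and brain and peripheral tissues were analysed at 15 and 30 min and 1 and 4 h post-injection. For specificity, rats were pretreated 5 min beforehand with PK11195 or Ro 5-4864 (PBR) or flumazenil (CBR), each at 1 mg/kg.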

[5] = molecular target: T2, peripheral benzodiazepine receptors (Rattus norvegicus, UniProt P16257); experiment: In vivo blocking / competition of tracer uptake by pre-treatment with PBR and CBR ligands; conditions: rats
T2 construct: high uptake in the tissues which have known PBR sites; from tissue; host or cells: organs of living SD rats (brain and peripheral tissues), in vivo
Description: The criteria for significance were **p<0.01 (highly significant) and *p<0.05 (significant). No stars implies not statistical difference from normals or controls.
The biodistribution of PBR132* was undertaken in SD rats and analysis up to 4 h p.i. in the brain and peripheral tissues was performed. The specificity and selectivity of the tracer were assessed by pre-treatment with PBR and Central benzodiazepine receptor (CBR) specific ligands (1 mg/kg) 5 min prior to injection of PBR132*.
The biodistribution of PBR 147* was performed in SD rats and brain and peripheral tissues were analysised at 15, 30 min, 1, and 4 h p.i. The specificity and selectivity of the tracer was assessed by pre-treatment of the animals with the PBR ligands PK11195 and Ro 5-4864 and with Flumazenil for CBR at 1 mg/kg 5 min prior to injection of PBR 147*
The biodistribution of PBR102* and PBR111* were performed in SD rats and brain and peripheral tissues analysed at 15, 30 min, 1, and 4 h p.i. The specificity and selectivity of the tracers were assessed by pre-treatment with the PBR ligands PK11195 and Ro 5-4864 and with Flumazenil for CBR at 1 mg/kg 5 min prior to injection of the corresponding tracers.
The specificity and selectivity of the tracers were assessed by pre-treatment with the PBR ligands PK11195 and Ro 5-4864 and with Flumazenil for CBR at 1 mg/kg 5 min prior to injection of the corresponding tracers.

IC50 [1]: 2620 nM | IC50 ([2]; read-out: PBR IC50): 800 nM | chromatographic logP [3]: 4.23 ± 0.13
SMILES: CC(C)(C)c1ccc(-c2nc3ccc(F)nn3c2CNC(=O)c2ccccc2)cc1 [PBR 139, N-((2-(4-tert-butylphenyl)-6-fluoroimidazo[1,2-b]pyridazin-3-yl)methyl)benzamide]

SMILES: CN(C(=O)Cc1c(-c2ccc(OCCF)cc2)nc2c(Cl)cc(Cl)cn12)c1ccccc1 [PBR 143, 2-(2-(4-(2-fluoroethoxy)phenyl)-6,8-dichloroimidazo[1,2-a]pyridin-3-yl)-N-methyl-N-phenylacetamide]
CBR, % @ 10^−5M ([1]; @ 10^−5M, [3H]-Flumazenil): 50% @ 10^−5M | IC50 ([2]; PBR IC50 (nM)): 6.4 nM | chromatographic logP [3]: 3.85 ± 0.12

SMILES: CN(C(=O)Cc1c(-c2ccc(OCCCF)cc2)nc2c(Cl)cc(Cl)cn12)c1ccccc1 [PBR 147, 2-(2-(4-(3-fluoropropoxy)phenyl)-6,8-dichloroimidazo[1,2-a]pyridin-3-yl)-N-methyl-N-phenylacetamide]
IC50 [1]: 4090 nM | Biodistribution: Bone ([4]; 15 min): 1 % ID/g | Biodistribution: Kidney ([4]; 15 min): 5 % ID/g | Biodistribution: Olfactory bulbs ([4]; 15 min): 0.66 % ID/g | Heart uptake maintained throughout the experiment ([4]; 15 min to 4 h): 7% | Biodistribution: Adrenals ([4]; 30 min): 9 % ID/g | Biodistribution: Adrenals ([4]; 4 hours): 11 % ID/g | Biodistribution: Bone ([4]; 4 hours): 2.9 % ID/g | Biodistribution: Kidney ([4]; 4 hours): 3.6 % ID/g | Biodistribution: Olfactory bulbs ([4]; 4 hours): 0.26 % ID/g | Blood activity level / concentration in the blood over the 4 h study period ([4]; throughout 15 min to 4 h): significantly lower | Tracer uptake after pre-treatment with PK 11195 ([5]; PK 11195 1 mg/kg 5 min prior to tracer, PBR-expressing tissues (brain/peripheral organs, adrenals apart)): decreased | Tracer uptake in the adrenals after pre-treatment with PK 11195 ([5]; PK 11195 1 mg/kg 5 min prior to tracer, adrenals): increase | Tracer uptake after pre-treatment with Ro 5-4864 ([5]; Ro 5-4864 1 mg/kg 5 min prior to tracer, PBR-expressing tissues (brain/peripheral organs, adrenals apart)): decreased | Tracer uptake in the adrenals after pre-treatment with Ro 5-4864 ([5]; Ro 5-4864 1 mg/kg 5 min prior to tracer, adrenals): increase | Tracer uptake after pre-treatment with flumazenil (central benzodiazepine ligand) ([5]; flumazenil 1 mg/kg 5 min prior to tracer, brain or peripheral organs): no effect | IC50 ([2]; PBR IC50 (nM)): 7.4 nM | chromatographic logP [3]: 4.31 ± 0.13

SMILES: CN(C(=O)Cc1c(-c2ccc(OCCF)cc2)nc2ccc(Cl)cn12)c1ccccc1 [PBR 149, 2-(2-(4-(2-fluoroethoxy)phenyl)-6-chloroimidazo[1,2-a]pyridin-3-yl)-N-methyl-N-phenylacetamide]
IC50 [1]: 357 nM | IC50 ([2]; PBR IC50 (nM)): 4.7 nM | chromatographic logP [3]: 3.57 ± 0.11
